Measured values as given in patent publication US20070122400A1, “Composition having liver function protecting effect” (priority 2003, published 2007).

Assays:
[1] = rats, daily dosage of 1,200 mg/kg continuously for 52 weeks; cited from earlier work
[2] = tested on: Liver dysfunction induced by carbon tetrachloride; conditions: rats, intraperitoneal administration; cited from earlier work
[3] = tested on: liver dysfunction model using carbon tetrachloride; assay: liver dysfunction model using carbon tetrachloride, plasma GPT activity; format: in vivo, male SD rats; conditions: rats; for GPT activity in the plasma sample, relative to the control group: 100 mg/kg oral in soy oil about 17 h before 50% carbon tetrachloride 2.0 ml/kg i.p., plasma 24 hours after carbon tetrachloride, n=4; for GPT activity in the plasma, rank among the groups: 100 mg/kg oral, 24 hours after carbon tetrachloride, same tendency at 48 hours and 72 hours, control group highest
Experimental: The effects of coenzyme Q10 on protecting liver functions from disorders and preventing liver dysfunctions were examined by establishing a liver dysfunction model using carbon tetrachloride. A soy oil solution of oxidized coenzyme Q10 or reduced coenzyme Q10 with approximately 2% of oxidized coenzyme Q10 was orally administered to male SD rats (6 weeks old) at a dosage of 100 mg/kg. About 16 hours after the administration, blood was collected from the jugular vein using heparin as an anticoagulant. After one hour, 50% carbon tetrachloride (product of Nacalai Tesque, Inc.)/olive oil (product of Wako Pure Chemical Industries, Ltd.) was intraperitoneally administered at a dosage of 2.0 ml/kg. Blood was collected 24 hours, 48 hours, and 72 hours after the administration of carbon tetrachloride. The collected blood samples were centrifuged to obtain plasma samples. The GPT activity of each plasma sample was measured using a kit, Transaminase CII-Test Wako (product of Wako Pure Chemical Industries, Ltd.).

For COC1=C(OC)C(=O)C(C/C=C(\C)CC/C=C(\C)CC/C=C(\C)CC/C=C(\C)CC/C=C(\C)CC/C=C(\C)CC/C=C(\C)CC/C=C(\C)CC/C=C(\C)CCC=C(C)C)=C(C)C1=O [Coenzyme Q10], the “toxic effects in chronic toxicity test” value [1] is given as “no toxic effects”.

In the case of COC1=C(OC)C(=O)C(C/C=C(\C)CC/C=C(\C)CC/C=C(\C)CC/C=C(\C)CC/C=C(\C)CC/C=C(\C)CC/C=C(\C)CC/C=C(\C)CC/C=C(\C)CCC=C(C)C)=C(C)C1=O [oxidized coenzyme Q10], the “liver dysfunction induced by carbon tetrachloride” value [2] is listed as “suppressed”, the “GPT activity in the plasma sample, relative to the control group” value [3] is listed as “about 60 % of the control group” and the “GPT activity in the plasma, rank among the groups” value [3] is listed as “the next highest”.

With COc1c(O)c(C)c(C/C=C(\C)CC/C=C(\C)CC/C=C(\C)CC/C=C(\C)CC/C=C(\C)CC/C=C(\C)CC/C=C(\C)CC/C=C(\C)CC/C=C(\C)CCC=C(C)C)c(O)c1OC [reduced coenzyme Q10] the “GPT activity in the plasma sample, relative to the control group” value [3] was “about 25 % of the control group” and the “GPT activity in the plasma, rank among the groups” value [3] was “the lowest”.
